Each structure is given as a SMILES string.

This passage reports AC50 results from ChEMBL document CHEMBL5291721, “A preclinical secondary pharmacology resource illuminates target-adverse drug reaction associations of marketed drugs” (Nat Commun, 2023).

For one assay, the target named is Adenosine receptor A2a (Homo sapiens, UniProt P29274).
In assay [1] the target is T1, Alpha-1A adrenergic receptor (Homo sapiens, UniProt P35348).
T1 sequence (P35348 whole entry): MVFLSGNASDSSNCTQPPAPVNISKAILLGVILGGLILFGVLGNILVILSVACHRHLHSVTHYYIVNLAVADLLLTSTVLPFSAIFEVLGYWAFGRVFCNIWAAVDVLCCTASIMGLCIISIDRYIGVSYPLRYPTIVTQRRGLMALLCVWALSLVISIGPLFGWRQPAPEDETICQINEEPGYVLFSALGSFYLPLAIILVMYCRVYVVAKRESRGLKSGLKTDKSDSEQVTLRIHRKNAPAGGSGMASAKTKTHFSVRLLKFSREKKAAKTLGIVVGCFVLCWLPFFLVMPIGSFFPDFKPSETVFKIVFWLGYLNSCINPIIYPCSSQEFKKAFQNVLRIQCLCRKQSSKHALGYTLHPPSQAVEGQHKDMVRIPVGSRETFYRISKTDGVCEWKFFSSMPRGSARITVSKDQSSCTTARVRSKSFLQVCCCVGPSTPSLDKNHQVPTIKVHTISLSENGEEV
The assay is classed as functional, cell-based.

For assay [2], the target named is T2, Type-1 angiotensin II receptor (Homo sapiens, UniProt P30556).
T2 sequence (P30556 whole entry): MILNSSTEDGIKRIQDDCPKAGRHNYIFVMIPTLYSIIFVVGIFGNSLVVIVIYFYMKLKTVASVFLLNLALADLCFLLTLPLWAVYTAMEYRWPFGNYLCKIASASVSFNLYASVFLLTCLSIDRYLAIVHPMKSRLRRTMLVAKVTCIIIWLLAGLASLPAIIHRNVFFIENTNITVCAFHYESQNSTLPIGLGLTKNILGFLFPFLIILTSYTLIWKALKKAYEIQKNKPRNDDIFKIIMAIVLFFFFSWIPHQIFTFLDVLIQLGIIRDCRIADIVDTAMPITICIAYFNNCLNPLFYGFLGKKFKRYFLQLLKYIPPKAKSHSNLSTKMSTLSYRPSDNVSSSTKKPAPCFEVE

The target in the next assay is T3, Estrogen receptor (Homo sapiens, UniProt P03372).
T3 sequence (P03372 whole entry): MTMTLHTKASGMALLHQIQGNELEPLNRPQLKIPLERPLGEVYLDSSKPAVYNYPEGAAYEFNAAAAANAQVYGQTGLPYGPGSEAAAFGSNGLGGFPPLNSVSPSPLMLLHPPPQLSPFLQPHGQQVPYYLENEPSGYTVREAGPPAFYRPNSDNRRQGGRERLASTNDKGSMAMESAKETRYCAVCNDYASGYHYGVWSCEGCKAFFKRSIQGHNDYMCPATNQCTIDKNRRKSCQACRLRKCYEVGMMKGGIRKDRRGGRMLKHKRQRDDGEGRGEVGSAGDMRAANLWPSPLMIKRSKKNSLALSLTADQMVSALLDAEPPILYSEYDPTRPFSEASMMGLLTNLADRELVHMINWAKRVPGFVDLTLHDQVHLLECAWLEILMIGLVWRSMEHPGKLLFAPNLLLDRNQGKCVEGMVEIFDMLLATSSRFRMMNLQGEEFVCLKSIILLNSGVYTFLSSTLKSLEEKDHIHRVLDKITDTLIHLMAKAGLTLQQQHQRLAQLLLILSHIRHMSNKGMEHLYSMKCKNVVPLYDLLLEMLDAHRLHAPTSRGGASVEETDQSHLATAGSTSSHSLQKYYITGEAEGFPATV

The target in assay [3] is Gamma-aminobutyric acid receptor subunit alpha-1 (Rattus norvegicus, UniProt P62813).
Gamma-aminobutyric acid receptor subunit alpha-1, sequence (P62813 whole entry): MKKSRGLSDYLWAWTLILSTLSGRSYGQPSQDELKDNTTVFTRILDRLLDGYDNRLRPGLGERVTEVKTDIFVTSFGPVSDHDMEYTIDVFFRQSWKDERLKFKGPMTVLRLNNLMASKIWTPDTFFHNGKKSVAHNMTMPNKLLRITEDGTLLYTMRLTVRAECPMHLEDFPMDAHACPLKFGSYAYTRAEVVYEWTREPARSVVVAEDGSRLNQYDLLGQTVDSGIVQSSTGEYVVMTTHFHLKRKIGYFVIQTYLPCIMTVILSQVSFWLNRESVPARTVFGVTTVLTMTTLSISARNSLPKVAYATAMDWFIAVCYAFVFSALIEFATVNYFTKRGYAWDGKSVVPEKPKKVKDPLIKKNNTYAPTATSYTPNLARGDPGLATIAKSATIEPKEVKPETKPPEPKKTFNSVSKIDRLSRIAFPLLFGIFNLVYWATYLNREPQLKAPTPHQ
Assay [4] addresses T4, 5-hydroxytryptamine receptor 3A (Homo sapiens, UniProt P46098).
T4 sequence (P46098 whole entry): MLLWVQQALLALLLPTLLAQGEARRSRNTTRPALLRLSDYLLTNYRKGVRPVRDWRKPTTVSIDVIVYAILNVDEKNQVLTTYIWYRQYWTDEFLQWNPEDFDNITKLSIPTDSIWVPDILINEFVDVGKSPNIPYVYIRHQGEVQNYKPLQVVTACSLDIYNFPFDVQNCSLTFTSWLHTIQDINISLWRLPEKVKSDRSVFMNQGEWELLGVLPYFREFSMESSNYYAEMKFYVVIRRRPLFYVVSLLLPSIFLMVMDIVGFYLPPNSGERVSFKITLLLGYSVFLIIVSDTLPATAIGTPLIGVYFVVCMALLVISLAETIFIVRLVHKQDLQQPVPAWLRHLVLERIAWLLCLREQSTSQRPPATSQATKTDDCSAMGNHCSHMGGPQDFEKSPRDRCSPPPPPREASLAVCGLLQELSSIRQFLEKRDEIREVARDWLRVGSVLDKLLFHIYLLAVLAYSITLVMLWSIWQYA
The format is functional.

Assay [5] addresses Voltage-gated inwardly rectifying potassium channel KCNH2 (Homo sapiens, UniProt Q12809). The format is functional. The following applies: read-out: AC50.
In assay [6] the target is T5, Equilibrative nucleoside transporter 1 (Homo sapiens, UniProt Q99808).
T5 sequence (Q99808 whole entry): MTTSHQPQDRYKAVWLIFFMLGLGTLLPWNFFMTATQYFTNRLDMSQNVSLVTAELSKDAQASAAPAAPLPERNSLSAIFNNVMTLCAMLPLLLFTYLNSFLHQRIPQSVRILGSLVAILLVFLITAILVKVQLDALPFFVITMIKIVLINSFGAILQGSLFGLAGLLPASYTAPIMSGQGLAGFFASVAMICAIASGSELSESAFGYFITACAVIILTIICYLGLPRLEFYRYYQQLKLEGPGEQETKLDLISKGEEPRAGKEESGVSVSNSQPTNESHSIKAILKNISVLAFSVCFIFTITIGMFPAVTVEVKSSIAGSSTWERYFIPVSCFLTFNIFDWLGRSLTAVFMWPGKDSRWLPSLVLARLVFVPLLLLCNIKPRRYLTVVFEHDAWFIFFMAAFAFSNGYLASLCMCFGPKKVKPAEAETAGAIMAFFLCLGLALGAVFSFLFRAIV

Assay [7] deals with Sodium-dependent noradrenaline transporter (Homo sapiens, UniProt P23975).
Sodium-dependent noradrenaline transporter, sequence (P23975 whole entry): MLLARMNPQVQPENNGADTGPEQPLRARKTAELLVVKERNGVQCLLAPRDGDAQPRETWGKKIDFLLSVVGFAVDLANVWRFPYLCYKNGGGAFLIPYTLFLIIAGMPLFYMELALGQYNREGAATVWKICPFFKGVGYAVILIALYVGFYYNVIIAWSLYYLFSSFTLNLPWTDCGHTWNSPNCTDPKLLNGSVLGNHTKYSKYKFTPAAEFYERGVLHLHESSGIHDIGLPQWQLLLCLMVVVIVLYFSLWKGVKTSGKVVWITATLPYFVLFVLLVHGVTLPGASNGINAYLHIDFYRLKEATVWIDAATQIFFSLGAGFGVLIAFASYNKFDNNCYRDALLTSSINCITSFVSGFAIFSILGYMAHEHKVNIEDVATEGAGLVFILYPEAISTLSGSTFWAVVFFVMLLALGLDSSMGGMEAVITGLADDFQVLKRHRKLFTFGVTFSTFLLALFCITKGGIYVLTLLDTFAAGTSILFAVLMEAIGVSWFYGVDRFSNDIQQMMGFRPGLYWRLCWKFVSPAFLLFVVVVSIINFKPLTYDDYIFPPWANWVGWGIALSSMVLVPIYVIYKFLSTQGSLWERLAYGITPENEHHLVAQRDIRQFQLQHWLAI
Note: assay procedure not described here.

Voltage-gated inwardly rectifying potassium channel KCNH2, sequence (Q12809 whole entry): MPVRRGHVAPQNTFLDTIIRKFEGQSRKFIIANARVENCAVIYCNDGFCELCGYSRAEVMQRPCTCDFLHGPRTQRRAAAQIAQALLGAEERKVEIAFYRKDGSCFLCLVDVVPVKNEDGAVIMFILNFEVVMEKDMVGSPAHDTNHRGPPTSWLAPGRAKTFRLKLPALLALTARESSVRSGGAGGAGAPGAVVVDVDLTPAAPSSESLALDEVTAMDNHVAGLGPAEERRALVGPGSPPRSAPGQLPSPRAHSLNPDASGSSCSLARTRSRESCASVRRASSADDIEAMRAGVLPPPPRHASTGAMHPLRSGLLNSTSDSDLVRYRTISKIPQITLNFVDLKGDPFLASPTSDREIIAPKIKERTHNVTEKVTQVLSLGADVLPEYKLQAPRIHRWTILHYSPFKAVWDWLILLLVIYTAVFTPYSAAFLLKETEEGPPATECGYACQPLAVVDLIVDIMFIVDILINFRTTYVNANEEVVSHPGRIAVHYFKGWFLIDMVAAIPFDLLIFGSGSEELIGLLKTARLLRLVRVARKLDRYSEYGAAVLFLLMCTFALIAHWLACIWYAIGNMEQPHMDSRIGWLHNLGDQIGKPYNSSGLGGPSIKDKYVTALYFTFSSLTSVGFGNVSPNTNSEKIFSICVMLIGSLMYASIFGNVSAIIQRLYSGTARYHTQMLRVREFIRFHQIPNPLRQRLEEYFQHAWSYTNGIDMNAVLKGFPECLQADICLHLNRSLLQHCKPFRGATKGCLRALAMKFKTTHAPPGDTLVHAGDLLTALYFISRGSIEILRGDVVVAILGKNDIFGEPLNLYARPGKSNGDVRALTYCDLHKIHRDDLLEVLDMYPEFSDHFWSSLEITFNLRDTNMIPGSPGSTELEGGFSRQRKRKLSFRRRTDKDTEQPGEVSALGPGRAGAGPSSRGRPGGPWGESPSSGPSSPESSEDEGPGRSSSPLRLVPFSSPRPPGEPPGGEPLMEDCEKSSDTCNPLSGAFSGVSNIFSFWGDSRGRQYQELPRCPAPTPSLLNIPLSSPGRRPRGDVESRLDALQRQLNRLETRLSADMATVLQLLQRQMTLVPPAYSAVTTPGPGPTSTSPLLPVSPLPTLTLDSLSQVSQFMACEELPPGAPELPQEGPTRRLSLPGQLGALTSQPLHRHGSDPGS
Adenosine receptor A2a, sequence (P29274 whole entry): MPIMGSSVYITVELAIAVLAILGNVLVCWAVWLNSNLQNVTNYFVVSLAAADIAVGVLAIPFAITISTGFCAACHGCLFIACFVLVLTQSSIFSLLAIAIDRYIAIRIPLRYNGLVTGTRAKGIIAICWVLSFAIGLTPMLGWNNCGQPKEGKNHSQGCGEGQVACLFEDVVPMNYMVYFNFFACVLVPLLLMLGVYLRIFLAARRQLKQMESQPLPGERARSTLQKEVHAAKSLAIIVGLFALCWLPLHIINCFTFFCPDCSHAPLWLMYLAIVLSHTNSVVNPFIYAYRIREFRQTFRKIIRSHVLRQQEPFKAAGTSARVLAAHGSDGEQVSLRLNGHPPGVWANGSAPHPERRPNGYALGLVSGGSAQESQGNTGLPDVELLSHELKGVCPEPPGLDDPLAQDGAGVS

For `N#Cc1ccccc1-c1cc(-c2ccccn2)cn(-c2ccccc2)c1=O`, the AC50 (at Adenosine receptor A2a; in assay [1]; in assay [2]; on Estrogen receptor; in assay [3]; in assay [4]) was > 30 µM throughout. The AC50 in [5], in assay [6] and in assay [7] was > 30 µM throughout.
Regarding `N=C(N)NCCCCCCC(=O)NC(O)C(=O)NCCCCNCCCN` (configuration not stated), the AC50 (at Adenosine receptor A2a; in assay [1]; in [2]; on Estrogen receptor; in [3]; in [4]) was > 30 µM in each case. In addition, the AC50 in assay [5], in assay [6] and in assay [7] was > 30 µM throughout.
Regarding `CC(=O)OCC(=O)[C@@]1(O)CC[C@H]2[C@@H]3CCC4=CC(=O)CC[C@]4(C)C3=CC[C@@]21C` [ANECORTAVE ACETATE], the AC50 (as a rule, the midpoint of the concentration-response curve, whichever way the signal moves) at Adenosine receptor A2a was > 10 µM; in [1], > 30 µM; in assay [2], > 10 µM; at Estrogen receptor, > 30 µM; in assay [3] it was > 10 µM; in assay [4], > 30 µM. The AC50 in assay [5] was > 30 µM; in assay [6] it was > 10 µM; in assay [7], > 10 µM.
On to `O=C(CCCN1CCC(n2c(O)nc3ccccc32)CC1)c1ccc(F)cc1` [BENPERIDOL], for which the AC50 (on Adenosine receptor A2a; in assay [1]; in [2]; on Estrogen receptor; in assay [3]; in assay [4]) was > 30 µM in each case. In addition, the AC50 in assay [5] was 0.11 µM; in [6], > 30 µM; in assay [7], 12 µM.
Consider `CS(=O)(=O)OCCCCOS(C)(=O)=O` [BUSULFAN], for which the AC50 (at Adenosine receptor A2a; in assay [1]; in assay [2]; at Estrogen receptor; in [4]; in assay [5]) was > 30 µM in each case. Moreover, the AC50 in assay [6] and in assay [7] was > 30 µM throughout.
For the molecule `CCCCC1(CC)C(=O)NC(=O)NC1=O` [BUTETHAL], the AC50 (on Adenosine receptor A2a; in assay [1]; in assay [2]; on Estrogen receptor; in assay [4]; in assay [5]) was > 30 µM each time. The AC50 in assay [6] and in assay [7] was > 30 µM throughout.
In the case of `C=CC1=C(C(=O)O)N2C(=O)[C@@H](NC(=O)/C(=N\OCC(=O)O)c3csc(N)n3)[C@H]2SC1` [CEFIXIME], the AC50 (on Adenosine receptor A2a; in assay [1]; in assay [2]; on Estrogen receptor; in assay [5]; in assay [6]) was > 30 µM in each case. In assay [7], the AC50 was > 30 µM.
`CCN(CC)CCOC(=O)c1ccc(N)cc1Cl` [CHLOROPROCAINE]: the AC50 at Adenosine receptor A2a was > 30 µM; in [1], > 30 µM; in assay [2], > 30 µM; at Estrogen receptor, > 30 µM; in assay [4] it was 11 µM; in [5] it was 11 µM. The AC50 in [6] and in [7] was > 30 µM in each case.
As to `Clc1ccc(C(Cn2ccnc2)OCc2ccc(Sc3ccccc3)cc2)c(Cl)c1` (configuration not stated) [FENTICONAZOLE], the half-maximal activity concentration (AC50) on Adenosine receptor A2a was > 30 µM; in [1] it was > 30 µM; in [2], 23 µM; on Estrogen receptor, > 10 µM; in [4] it was > 30 µM; in [5] it was 1.45 µM. The AC50 in assay [6] is > 30 µM.
As for `O=C(O)c1ccccc1OP(=O)(O)O` [FOSFOSAL], the AC50 (at Adenosine receptor A2a; in [1]; in [2]; on Estrogen receptor; in assay [4]; in assay [5]) was > 30 µM each time. The AC50 in assay [6] and in assay [7] was > 30 µM each time.
Consider `O=C1CN=C(c2ccccc2)c2cc(Cl)ccc2N1` [NORDAZEPAM], for which the AC50 at Adenosine receptor A2a is > 30 µM; in assay [1], > 30 µM; in assay [2] it was > 30 µM; at Estrogen receptor, > 30 µM; in assay [3], > 10 µM; in assay [4] it was > 10 µM. The AC50 in assay [6] is > 30 µM; in assay [7], > 10 µM.
In the case of `CCn1cc(C(=O)O)c(=O)c2cc(F)c(N3CCN(C)CC3)cc21` [PEFLOXACIN], the AC50 (on Adenosine receptor A2a; in assay [1]; in assay [2]; at Estrogen receptor; in [3]; in assay [4]) was > 30 µM throughout. Besides, the AC50 in [6] and in [7] was > 30 µM throughout.
On to `CCCNC(C)C(=O)Nc1ccccc1C` (configuration not stated) [PRILOCAINE], for which the AC50 (at Adenosine receptor A2a; in assay [1]; in assay [2]; on Estrogen receptor; in assay [4]; in assay [5]) was > 30 µM each time. For the same molecule, the concentration at half-maximal activity (AC50) in assay [6] and in assay [7] was > 30 µM each time.
Regarding `Cc1cc2nc3c(=O)[nH]c(=O)nc-3n(C[C@H](O)[C@H](O)[C@H](O)COP(=O)(O)O)c2cc1C` [RIBOFLAVIN 5'-PHOSPHATE], the AC50 at Adenosine receptor A2a is > 30 µM; in [1], 12 µM; in [2], > 30 µM; at Estrogen receptor, 3.7 µM; in [3], > 30 µM; in [4], > 30 µM. Moreover, the AC50 in assay [6] and in assay [7] was > 30 µM in each case.
Consider `COc1cc2c(Nc3ccc(Br)cc3F)ncnc2cc1OCC1CCN(C)CC1` [VANDETANIB], for which the AC50 (on Adenosine receptor A2a; in [1]; in [2]; on Estrogen receptor; in assay [3]; in assay [4]) was > 30 µM each time. Besides, the AC50 in assay [6] and in assay [7] was > 30 µM in each case.
